Relative viability data for four cell lines are collected here from the supplement of paper PMC10307832.

Holding throughout (assay): relative viability (nuclei count vs DMSO), 5 days (fraction); higher = more cells survive
Compound in assay [1]: C[C@@H](C(=O)N[C@@H](C1CCCCC1)C(=O)N2CCC[C@H]2C(=O)N[C@@H]3[C@@H](CC4=CC=CC=C34)OCC#CC#CCO[C@@H]5CC6=CC=CC=C6[C@@H]5NC(=O)[C@@H]7CCCN7C(=O)[C@H](C8CCCCC8)NC(=O)[C@H](C)NC)NC [AZD5582] + O=C(CCCCCCC(=O)Nc1ccccc1)NO [Vorinostat] (partner 1 µM)
In outline: (§1)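 Cells from lung cancer lines were seeded into 1536-well plates and, one day later, dosed by pin tool. Treatments were either a single drug or a fixed dose of an anchor drug with five library-drug doses (not always all listed) in √10 steps. After 5 days, nuclei were stained in a one-step fixation (final 0.05% Triton X-100, 1% formaldehyde, 1 ug/ml Hoechst) and counted on 4× images, and relative viability is the treated-to-vehicle nuclei ratio, as the median of duplicate plates.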

Compound in assay [2]: Cn1nnc2c(C(N)=O)ncn2c1=O [Temozolomide] + Cc1nc(Nc2ncc(C(=O)Nc3c(C)cccc3Cl)s2)cc(N2CCN(CCO)CC2)n1 [Dasatinib] (partner 0.075 µM)
In outline:
as §1

Compound in assay [3]: Cn1nnc2c(C(N)=O)ncn2c1=O [Temozolomide] + Nc1ncn([C@H]2C[C@H](O)[C@@H](CO)O2)c(=O)n1 [Decitabine] (partner 2 µM)
In outline:
as §1

Compound in assay [4]: Cn1nnc2c(C(N)=O)ncn2c1=O [Temozolomide] + O=C(CCCCCCC(=O)Nc1ccccc1)NO [Vorinostat] (partner 1 µM)
In outline:
as §1

Take BEN: the relative viability worked out at 0.53 in assay [1] (first compound 0.001581 µM); 0.568 in assay [1] (first compound 0.005 µM); 0.591 in assay [1] (first compound 0.01581 µM); 0.555 in assay [1] (first compound 0.05 µM); 0.285 in assay [2] (first compound 0.2 µM); 0.356 in assay [2] (first compound 0.6325 µM). The relative viability in assay [2] (first compound 2 µM) was 0.31; in assay [2] (first compound 6.325 µM) it was 0.257; in assay [2] (first compound 20 µM), 0.263; in assay [3] (first compound 0.2 µM), 0.77; in assay [3] (first compound 0.6325 µM) it was 0.677; in assay [3] (first compound 2 µM) it was 0.808. Further, the relative viability in assay [3] (first compound 6.325 µM) came to 0.7; in assay [3] (first compound 20 µM), 0.659; in assay [4] (first compound 0.2 µM), 0.567; in assay [4] (first compound 0.6325 µM), 0.558; in assay [4] (first compound 2 µM) it was 0.652; in assay [4] (first compound 6.325 µM), 0.58. Further, the relative viability in assay [4] (first compound 20 µM) stood at 0.552.

For the cell line SW 900, the relative viability in assay [1] (first compound 0.001581 µM) amounted to 0.435; in assay [1] (first compound 0.005 µM), 0.444; in assay [1] (first compound 0.01581 µM), 0.364; in assay [1] (first compound 0.05 µM), 0.295; in assay [2] (first compound 0.2 µM), 0.644; in assay [2] (first compound 0.6325 µM), 0.561. Besides, the relative viability in assay [2] (first compound 2 µM) is 0.381; in assay [2] (first compound 6.325 µM), 0.541; in assay [2] (first compound 20 µM), 0.553; in assay [3] (first compound 0.2 µM) it was 0.428; in assay [3] (first compound 0.6325 µM), 0.427; in assay [3] (first compound 2 µM) it was 0.453. Also, the relative viability was 0.511 in assay [3] (first compound 6.325 µM); 0.427 in assay [3] (first compound 20 µM); 0.741 in assay [4] (first compound 0.2 µM); 0.498 in assay [4] (first compound 0.6325 µM); 0.569 in assay [4] (first compound 2 µM); 0.373 in assay [4] (first compound 6.325 µM). Also, in assay [4] (first compound 20 µM), the relative viability turned out to be 0.344.

As for LC-2-ad, the relative viability in assay [1] (first compound 0.001581 µM) came to 0.697; in assay [1] (first compound 0.005 µM), 0.726; in assay [1] (first compound 0.01581 µM) it was 0.704; in assay [1] (first compound 0.05 µM), 0.804; in assay [2] (first compound 0.2 µM), 0.628; in assay [2] (first compound 0.6325 µM), 0.662. In addition, the relative viability in assay [2] (first compound 2 µM) is 0.836; in assay [2] (first compound 6.325 µM) it was 0.471; in assay [2] (first compound 20 µM) it was 0.472; in assay [3] (first compound 0.2 µM) it was 0.795; in assay [3] (first compound 0.6325 µM), 0.766; in assay [3] (first compound 2 µM), 0.775. For the same cell line, the relative viability worked out at 0.874 in assay [3] (first compound 6.325 µM); 0.665 in assay [3] (first compound 20 µM); 0.824 in assay [4] (first compound 0.2 µM); 0.717 in assay [4] (first compound 0.6325 µM); 0.726 in assay [4] (first compound 2 µM); 0.733 in assay [4] (first compound 6.325 µM). In addition, in assay [4] (first compound 20 µM), the relative viability stood at 0.668.

As for LXF-289, the relative viability worked out at 0.698 in assay [1] (first compound 0.001581 µM); 0.779 in assay [1] (first compound 0.005 µM); 0.641 in assay [1] (first compound 0.01581 µM); 0.905 in assay [1] (first compound 0.05 µM); 0.27 in assay [2] (first compound 0.2 µM); 0.228 in assay [2] (first compound 0.6325 µM). In addition, the relative viability in assay [2] (first compound 2 µM) turned out to be 0.192; in assay [2] (first compound 6.325 µM), 0.18; in assay [2] (first compound 20 µM), 0.252; in assay [3] (first compound 0.2 µM), 0.388; in assay [3] (first compound 0.6325 µM), 0.403; in assay [3] (first compound 2 µM), 0.367. For the same cell line, the relative viability in assay [3] (first compound 6.325 µM) was found to be 0.373; in assay [3] (first compound 20 µM) it was 0.391; in assay [4] (first compound 0.2 µM), 0.782; in assay [4] (first compound 0.6325 µM), 0.826; in assay [4] (first compound 2 µM), 0.65; in assay [4] (first compound 6.325 µM) it was 0.712. Also, the relative viability in assay [4] (first compound 20 µM) was 0.712.
